The values below come from patent US20260207624A1, “COADMINISTRATION OF ESTROGEN WITH ESTROGEN RECEPTOR MODULATOR OR DEGRADER OR ER TARGETED PROTAC FOR THE TREATMENT OF ESTROGEN RESPONSIVE CANCERS” (Duke University, priority 2022, published 2026).

One data set concerns E0771 mammary tumors. The data set can be described thus: E0771 mammary tumor growth in ovariectomized mice receiving placebo or E2. Format: in vivo, mouse. The method, then:
(§1) Prior to implantation into animals, BPD6, E0771, and A7C11 cells were cultured in DMEM media supplemented with 8% fetal bovine serum, non-essential amino acids and sodium pyruvate. Cells were trypsinized and injected in phosphate buffered saline.
(§2) For all experiments, mice were ovariectomized under anesthesia at 7 weeks of age and were provided placebo or estrogen (2.72 mcg/mL) treatment in drinking water throughout the remainder of the experiment. 7 to 10 days after surgery 0.5×10^6 BPD6melanoma cells or E0771 (0.2×10^6) or A7C 11 (0.4×10^5) mammary cancer cells per mouse were injected subcutaneously (BPD6) or orthotopically (A7C11 or E0771) into the axial mammary gland. Tumor growth was monitored by caliper measurement at least 3× weekly and was calculated as L×W2×0.5. For those mice receiving treatment with SERDs, mice were randomized to treatment 2 days after tumor implantation. 3574 (camizestrant) and 3964 were administered PO QD (by mouth every day) formulated in 5% DMSO/20% hydroxypropyl-b-cyclodextrin. Fulvestrant was administered SC Q5D in 10% DMSO/95% corn oil.
(§3) At the conclusion of tumor measurement (approximately 2 weeks or when tumor reached 1.5-2 cm^3 volume), mice were euthanized by CO2 exposure followed by decapitation. Uteri were removed at necropsy and weighed as a measure of estrogen stimulation.
Analogous to the experiment in Example 4, E0771 mammary tumors were implanted in ovariectomized mice receiving E2 or placebo treatment.

Another data set has as its system BPD6 melanoma tumors. The data set can be described thus: BPD6 tumor growth in mice with ER ablated in macrophages (LysMCre+) or littermate controls. Type of data set: in vivo, mouse. As to the method:
FIG. 5. TUMOR GROWTH IS REPRESSED WITH ESTROGEN AND A BRAIN-EXCLUDED SERD. FIG. 5 is a graph of tumor growth for BPD6 tumors with or without ER for the various indicated drug treatments. […] An analogous experiment to that presented in FIGS. 2A-2B and FIGS. 3A-3B was conducted in mice in which ER expression in macrophages was ablated using a promoter (LysM) to drive expression of the Cre enzyme to delete this receptor specifically in this cell type in mice having a floxed allele of ER. BPD6 melanoma tumors were implanted subcutaneously into Cre+ (ER ablated in macrophage) or littermate (LM, phenotypically wild type) mice that had been ovariectomized and then assigned to placebo or E2 treatment.
as §2
It was previously determined that for some cancer subtypes, including melanoma, one mechanism by which estrogens modulate tumor growth is by promoting a pro-tumor anti-inflammatory M2-like phenotype in the tumor infiltrating macrophages. Using a genetic model employing Cre-Lox technology to specifically delete estrogen receptor in myeloid cells (including macrophages), it was previously determined that loss of estrogen receptor expression in this immune cell population results in the loss of estrogen modulation of tumor growth in these tumors. […] BOD6 tumors were implanted in ovariectomized ERflox/flox/LysMCre+ or ERflox/flox mice that received placebo or estradiol treatment. Mice were further randomized to receive vehicle or SERD 3574 (10 mg/kg po qd; by mouth every day). Average tumor volume +/−SEM was determined. Significance (p<0.05) was determined by 2-way ANOVA followed by Tukey's multiple comparison test.

Another data set relates to BPD6 melanoma cells. The data set can be described thus: BPD6 melanoma tumor growth in ovariectomized mice receiving placebo or E2. Type of data set: in vivo, mouse. The settings on record: BPD6 tumors. As to the method: as §1, §2, §3
(§4) To further explore the role of brain-expressed ER in tumor growth in the periphery, 2 SERDs were used with unique pharmacokinetics. […] ER-negative BPD6 melanoma cells were implanted into ovariectomized mice receiving either placebo or estradiol (E2) treatment in drinking water. After 48 hours, mice were randomized to receive vehicle (veh) or selective estrogen receptor degrader 3574 (10 mg/kg po qd; by mouth every day). Average tumor volume +/−SEM at each day of measurement was determined. Significance (p<0.05) was determined by 2-way ANOVA followed by Tukey's multiple comparison test. […] Treatment with anti-estrogens reversed this estradiol stimulation of tumor growth. E2 treated groups are included FIGS. 3A-3B.
To further explore the relationship between brain exposure to SERDs and tumor response, a second melanoma experiment was conducted in which BPD6 tumors were implanted into ovariectomized mice receiving vehicle or estradiol treatment. These groups were further subdivided to receive vehicle or treatment with 25, 50, or 100 mg/kg fulvestrant.

The next data set concerns A7C11 mammary tumors. Briefly: A7C11 mammary tumor growth in C57BL6 mice receiving placebo or estradiol. The settings on record: for effect on tumor growth, fulvestrant alone: mice lacking estrogen exposure. Format: in vivo, mouse. The method, then:
FIGS. 11a-11b. […] 2 days later mice were subdivided to receive treatment with vehicle or fulvestrant (25, 50 or 100 mg/kg sc q5d). Average tumor volume throughout treatment (FIG. 11A) and uterine weight (FIG. 11B) at necropsy are presented. Placebo and E2+Veh groups in (FIG. 11A) are common between graphs to facilitate comparison. * p<0.05, 2-way (FIG. 11A) or 1-way (FIG. 11B) ANOVA followed by Tukey multiple comparison test. […]
as §1
as §2, with “[…]. […]” for “oil.”

Another data set deals with uterus. Briefly: Uterine wet weight at necropsy as measure of estrogen stimulation. Format: in vivo, mouse. The method, then: as §2, §3, §4
Data set [1] in a line: Brain penetration of the SERDs (pharmacokinetics). The settings on record: stated as a property of the SERD, no test described.
Setting [2] is: Cre- littermate control (LM) mice of the brain-ERKO experiment, E2 in drinking water.

“Also recorded” adds a separate entry of the source.

For `C[C@]12CC[C@@H]3c4ccc(O)cc4CC[C@H]3[C@@H]1CC[C@@H]2O` [E2, 17β-estradiol], the “effect of E2 on tumor growth vs placebo treated control” value in the data set with E0771 mammary tumors (setting [2]), with BPD6 melanoma cells (setting [2]) and in the data set with A7C11 mammary tumors (setting [2]) was “accelerated the growth of the tumors” in each case. In addition, the “tumor volume relative to placebo control” value in the data set with E0771 mammary tumors (E2 treatment alone (FIG. 4A)) was “approximately 2 fold”. Further, the “effect of E2 on tumor growth” value in the data set on BPD6 melanoma tumors (Cre+ mice (ER ablated in macrophage)) is “without significant effect on tumor growth”. Also, the “tumor volume as compared to the placebo control” value in the data set with BPD6 melanoma tumors (Cre- LM control mice, E2 treatment) came out at 2 fold. In addition, the “increase in tumor growth as compared to placebo/vehicle treatment” value with BPD6 melanoma cells (ovariectomized wild-type mice, agent alone (FIG. 2B)) is recorded as 3 fold. In addition, the “effect on tumor growth” value in the data set on A7C11 mammary tumors (estradiol (2.72 mcg/mL drinking water) and vehicle co-administered) is given as “increase in A7C11 tumor growth”. Further, the “increase in uterine wet weight” value with uterus (estrogen treatment vs placebo, BPD6 tumor bearing ovariectomized mice (FIG. 2A)) was around 10 fold.

With `C[C@@H]1Cc2c(ccc3[nH]ncc23)[C@@H](c2ccc(NC3CN(CCCF)C3)cn2)N1CC(F)(F)F` [compound 3574, camizestrant], in the data set with E0771 mammary tumors (E2-treated mice, 3574 (10 mg/kg)), the “effect on E2 stimulation of tumor growth” value is recorded as “reversed E2 stimulation of tumor growth”. The brain penetration result in data set [1] is given as “brain excluded”. The “effect on tumor growth vs Cre+ mice receiving E2 alone” value in the data set on BPD6 melanoma tumors (Cre+ mice, 3574 10 mg/kg po qd and E2 together) is given as “significantly inhibited tumor growth”. Further, the “effect on growth of tumors, SERD alone” value with BPD6 melanoma tumors (placebo treated Cre+ mice, 3574 10 mg/kg po qd) is “did not affect the growth of tumors”. Moreover, the “effect on E2 induced tumor growth” value with BPD6 melanoma cells (3574 10 mg/kg po qd together with E2, 10 mg/kg) was “suppressed tumor growth below that observed in the placebo/vehicle treated control; also recorded: reversed E2 induced tumor growth, but in fact significantly repressed tumor growth as compared to placebo treatment alone”. Besides, the “effect on tumor growth, SERD alone” value is listed as “without effect on tumor growth” in the data set with BPD6 melanoma cells (placebo treated (no E2) mice, 3574 10 mg/kg po qd) and “did not impact tumor growth” in the data set with A7C11 mammary tumors (animals lacking estrogen exposure (FIGS. 12B-12D)). Also, the “effect on tumor growth, SERD together with estrogen” value with A7C11 mammary tumors (estradiol treated mice (FIGS. 12B-12D)) was “further repressed tumor growth”. Also, the “effect on E2 stimulation of the uterus (post-mortem uterine wet weight)” value in the data set on uterus (E0771 tumor bearing mice, all doses of the SERD) was “reversed E2 stimulation of the uterus”. Also, the “effect on E2 stimulation of uterine wet weight” value in the data set on uterus (SERD with E2, BPD6 tumor bearing ovariectomized mice) is given as “reversed E2 stimulation of uterine wet weight”. For the same molecule, the “effect on uterine weight, SERD alone (ER agonist activity)” value in the data set with uterus (placebo together with SERD, BPD6 tumor bearing ovariectomized mice) is recorded as “did not affect uterine weight”.

Regarding `C[C@]12CC[C@@H]3c4ccc(O)cc4C[C@@H](CCCCCCCCC[S+]([O-])CCCC(F)(F)C(F)(F)F)[C@H]3[C@@H]1CC[C@@H]2O` (stereo partly drawn) [fulvestrant], in the data set on BPD6 melanoma cells (E2-treated mice, fulvestrant 25, 50, or 100 mg/kg), the “effect on E2 stimulation of tumor growth” value is listed as “reversed E2 stimulation of tumor growth”. For the same molecule, the “effect on tumor growth, fulvestrant alone” value in the data set with BPD6 melanoma cells (placebo treated mice, fulvestrant 100 mg/kg) is given as “growth similar to that of the estrogen/vehicle control; also recorded: induced tumor growth itself”; in the data set with A7C11 mammary tumors (25 mg/kg fulvestrant sc q5d), “dose not affect A7C11 tumor growth”; in the data set with A7C11 mammary tumors (50 or 100 mg/kg fulvestrant sc q5d) it was “tumor growth comparable to that observed for the estrogen control group”. Also, the “effect on estrogen induction of tumor growth” value in the data set with A7C11 mammary tumors (estradiol treated mice, 25, 50, or 100 mg/kg fulvestrant) was “similarly inhibited estrogen induction of A7C11 tumor growth”. For the same molecule, in the data set on uterus (A7C11 tumor bearing mice, fulvestrant 25, 50, or 100 mg/kg sc q5d), the “effect on estrogen-dependent increases in uterine weight” value is on record as “similarly repressed estrogen-dependent increases in uterine weight”.

As for `Oc1ccc2c(c1)CC[C@H](c1ccccc1)[C@@H]2c1ccc(OCCN2CCCC2)cc1` [lasofoxifene], the “effect on tumor growth as compared to the placebo/vehicle control group” value with A7C11 mammary tumors (3 mg/kg lasofoxifene po qd co-administered with estradiol) is recorded as “repression of tumor growth”.
